Patent publication US20100029654A1, “CARDIOVASCULAR COMPOSITIONS AND USE OF THE SAME FOR THE TREATMENT OF ALZHEIMER'S DISEASE” (MOUNT SINAI SCHOOL OF MEDICINE, priority 2006, published 2010)
Where “and” joins values, the source holds several entries; their conditions need not be identical. Equal values may be shown once. Where a name gives a salt, the structure may show the parent alone. Read-outs that look alike come from different tables or passages of the source.

Key:
Aβ1-40 = Aβ1-40 content in conditioned medium of primary cortico-hippocampal neuron cultures from Tg2576 mice (ELISA; primary and secondary dose-response screening); format: cell-based, mouse; conditions: for activity at 100 µM / EC50: Mus musculus; for activity at 100 µM: 24 h, read-out: Ab1-40 (% of ctl); for reduced Aβ1-40: <85% of ctl
Summary of the method: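 Primary cortico-hippocampal neurons from embryonic Tg2576 mice were plated at 1.0×10^5 cells per well on poly-D-lysine-coated 96-well plates in Neurobasal with 2% B27, 0.5 mM L-glutamine and 1% penicillin-streptomycin. Cultures received drug in 1% DMSO, and Aβ1-40 in the conditioned medium was measured by BioSource ELISA 24 hours after treatment, relative to vehicle controls.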

Aβ1-42 [1] = test: Aβ1-42 content in conditioned medium of primary cortico-hippocampal neuron cultures from Tg2576 mice (ELISA; primary and secondary dose-response screening); format: cell-based, mouse; conditions: for activity at 100 µM: Mus musculus, Neuron, 24 h, read-out: Ab1-42 (% of ctl); for reducing Aβ1-42: <85% of ctl
Summary of the method: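 Primary cortico-hippocampal neurons from embryonic Tg2576 mouse brain were seeded on poly-D-lysine-coated 96-well plates at 1.0×10^5 cells per well in serum-free Neurobasal medium with 2% B27, 0.5 mM L-glutamine and 1% penicillin-streptomycin. For primary screening, duplicate wells received 100 μM drug (1% DMSO final). Vehicle-treated cultures served as controls, and Aβ1-42 in conditioned medium was measured by commercial ELISA.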

Aβ1-42 [2] = test: as above; format: cell-based, mouse; conditions: Mus musculus; for EC50: Neuron
[3] = test system: primary cortico-hippocampal neuron cultures; test: MTT in primary screening
[4] = test system: primary cortico-hippocampal neuron cultures; test: lactate dehydrogenase (LDH) activity assay in parallel neuron cultures; conditions: for LDH at E-5M % of change: drug at E-5M; for LDH (at 5F-5 M): Table IV
Experimental: For in vitro treatments drugs available from “The Spectrum Collection” in stocks of 10 mM in DMSO were applied directly to cultures to the desired concentrations (final 1% DMSO); control primary neuron cultures from Tg2576 embryos were treated with vehicle resulting in a final 1% DMSO.
Cell viability was assessed using a commercial available LDH assay kit according to the manufacture's instruction (Promega).

Tg2576 mice [5] = test: blood pressure (systolic, diastolic, MAP) by tail-cuff; format: in vivo, mouse; conditions: Tg2576, 3 weeks
Experimental: FIG. 1 Tg2576 mice are characterized by normal blood pressure under basal conditions. Baseline measurements of systolic, diastolic blood pressure, and mean arteriole blood pressure (MAP) in ˜11 month old female Tg2576 mice. Strain-, age-, gender-matched WT mice were measured using a commercial blood pressure analysis system designed specifically for small rodents (Hatteras Instruments, NC). Following manufacturer's instruction, mice were temporarily immobilized in a restraining chamber and an inflated tail-cuff wrapped around the tail was used to measure the systolic pressure, diastolic pressure, and MAP. Each blood pressure determination was calculated as the mean of 10 individual measurements per animal (n=6-10 group).
FIG. 6A-C show body weight of mice in response to ˜3 weeks of treatment. […] FIG. 6D-F show the assessment of systolic, diastolic, and MAP blood pressure in Tg2576 mice in response to drug doses below or within the range of those prescribed in hypertension. Blood pressure measurements were conducted using a commercial blood pressure analysis system designed specifically for small rodents (Hatteras Instruments, NC). Following manufacturer's instruction, mice were temporarily immobilized in a restraining chamber and an inflated tail-cuff wrapped around the tail was used to measure pressures. Each blood pressure determination was calculated as the mean of 10 individual measurements per animal. In A-F, values represent mean±SEM values, n=3-5 mice per group. 2-tailed t-test: *P<0.05.
Assessment of blood pressure and glucose utilization. Mouse blood pressure was routinely recorded using a commercial blood pressure analysis system designed specifically for small rodents (Hatteras Instruments, NC). […] Briefly, mice were given a single dose of glucose post-prandially (i.p. 2 g/kg body weight). Blood was collected from the tail-vein periodically over a 2-hour period. Blood glycemic content was assessed using the OneTouch LifeScan System, (LifeScan, Milpitas, Calif.) following the manufacturer's instruction.

Tg2576 mice [6] = test: tolerability: body weight, fluid consumption, glucose tolerance; conditions: Tg2576, short-term dosing
[7] = Neuron, Primary Screening, drug 100 μM, table sorted by Aβ1-40
[8] = Neuron, primary screening, drug 100 μM, Tg2576 neuron cultures, table sorted by Aβ1-42
[9] = Neuron, secondary dose-response screening 0.01-100 μM, 24 hours, read-out: EC50 (molar) Aβ1-40
[10] = Primary Screening, drug 100 μM, table sorted by Aβ1-40
[11] = primary screening, drug 100 μM, Tg2576 neuron cultures, table sorted by Aβ1-42
[12] = 24 h, secondary dose-response screening 0.01-100 μM, 24 hours, read-out: EC50 (molar) Aβ1-42
[13] = Primary Screening, table sorted by Aβ1-40
[14] = primary screening, table sorted by Aβ1-42
[15] = Primary Screening, table sorted by Aβ1-40, Hydrochloride
[16] = primary screening, table sorted by Aβ1-42, Hydrochloride
[17] = Neuron, Table IV, dose-response 0.01-100 μM, read-out: EC50 (M): Ab-lowering activity Abeta1-40
[18] = Table IV, dose-response 0.01-100 μM, read-out: EC50 (M): Ab-lowering activity

Row | Compound | activity at 100 µM (Aβ1-40; [7]) [%] | activity at 100 µM (Aβ1-40; [8]) [%] | EC50 (Aβ1-40; [9]) [M] | reduced Aβ1-40 (Aβ1-40; primary screening) | activity at 100 µM (Aβ1-42 [1]; [10]) [%] | activity at 100 µM (Aβ1-42 [1]; [11]) [%] | reducing Aβ1-42 (Aβ1-42 [1]; primary screening) | EC50 (Aβ1-42 [2]; [12]) [M] | MTT (% of ctl) [3, 13] | MTT (% of ctl) [3, 14] | LDH (% of ctl) [4, 13] | LDH at E-5M % of change [4] [%] | LDH (% of ctl) [4, 14] | EC50 (Aβ1-40; [17]) [M] | EC50 (Aβ1-42 [2]; [18]) [M] | LDH (at 5F-5 M) [4] | further results
1 | C=C(CC)C(=O)c1ccc(OCC(=O)O)c(Cl)c1Cl [Ethacrynic Acid] | 4.4 | 4.4 | 2.1e-05 | reduced Aβ1-40 | 1.8 | 1.8 | useful in reducing Aβ1-42 | 2.25e-05 | 109.9 % of ctl | 109.9 % of ctl | 101.5 % of ctl | 10.0 | 101.5 % of ctl | – | – | – | –
2 | COCCOC(=O)C1=C(C)NC(C)=C(C(=O)OC(C)C)C1c1cccc([N+](=O)[O-])c1 (stereo not shown) [Nimodipine] | 79.1 | 79.1 | – | – | 90.9 | 90.9 | – | 2.81e-05 | 115.6 % of ctl | 115.6 % of ctl | 100.4 % of ctl | −4.0 | 100.4 % of ctl | – | – | – | EC50 (Aβ1-42 [2]; 24 h, conditioned medium of primary cortico-hippocampal neuron cultures from Tg2576 embryos, 24 hours after treatment, relative to vehicle (1% DMSO) control, read-out: EC50 (molar) Aβ1-42): 2.81e-05 M
3 | CC(COc1ccccc1)NC(C)C(O)c1ccc(O)cc1 (stereo not shown) [Isoxsuprine Hydrochloride] | 78.3 | 78.3 | – | reduced Aβ1-40 | 83.7 | 83.7 | useful in reducing Aβ1-42 | 8.07e-06 | – | – | – | 5.0 | – | – | – | – | EC50 (molar) Aβ1-40 (Aβ1-40; secondary dose-response screening 0.01-100 μM, 24 hours): no fit; MTT (% of ctl) [3, 15]: 99.8 % of ctl and 93.1 % of ctl; MTT (% of ctl) [3, 16]: 99.8 % of ctl and 93.1 % of ctl; LDH (% of ctl) [4, 15]: 106.2 % of ctl and 107.7 % of ctl; LDH (% of ctl) [4, 16]: 106.2 % of ctl and 107.7 % of ctl
4 | CO[C@H]1[C@H](O)[C@H](O[C@H]2CC[C@@]3(C=O)[C@H](CC[C@@H]4[C@@H]3CC[C@]3(C)[C@@H](C5=CC(=O)OC5)CC[C@]43O)C2)O[C@@H](C)[C@@H]1O [Peruvoside] | – | – | – | – | – | – | – | – | 98.8 % of ctl | 98.8 % of ctl | 105.5 % of ctl | – | 105.5 % of ctl | – | – | – | activity at 100 µM (Aβ1-40; [11]): 115%; Ab1-40 (% of ctl) (Aβ1-40; [10]): 115.3 % of ctl; Ab1-42 (% of ctl) (Aβ1-42 [1]; [10]): 90.9 % of ctl; activity at 100 µM (Aβ1-42 [2]; 24 h, primary screening, drug 100 μM, Tg2576 neuron cultures, table sorted by Aβ1-42, read-out: Ab1-42 (% of ctl)): 90.9%
5 | NNc1nncc2ccccc12 [Hydralazine Hydrochloride] | 66.1 | 66.1 | 9.29e-06 | reduced Aβ1-40 | 63.2 | 63.2 | useful in reducing Aβ1-42 | 1.04e-05 | 95.7 % of ctl | 95.7 % of ctl | 101.1 % of ctl | −1.2 | 101.1 % of ctl | 9.29e-06 | 1.04e-05 | no change | –
6 | CCCCc1nc(Cl)c(CO)n1Cc1ccc(-c2ccccc2-c2nn[nH]n2)cc1 [Losartan] | 76 | 76 | – | reduced Aβ1-40 | 97.1 | 97.1 | – | – | 71.3 % of ctl | 71.3 % of ctl | 110.4 % of ctl | – | 110.4 % of ctl | 0.000117 | 0.0001 | no change | systolic, diastolic, MAP blood pressure (Tg2576 mice [5]; doses within the range used for hypertension): decreased systolic, diastolic, and MAP blood pressure; systolic, diastolic, MAP blood pressure (Tg2576 mice [5]; doses ~3 fold below the minimal hypertension dose): did not significantly influence either systolic, diastolic or MAP blood pressure; fluid intake (Tg2576 mice [6]): did not significantly influence the amount of fluid intake
